From ChEMBL document CHEMBL5523697, “Colony Stimulating Factor-1 Receptor: An emerging target for neuroinflammation PET imaging and AD therapy” (Bioorg Med Chem, 2024) come the findings set out here.

For data set [1], the target named is T1, Macrophage colony-stimulating factor 1 receptor (Homo sapiens, UniProt P07333).
Data set [2] addresses T1, Macrophage colony-stimulating factor 1 receptor. The source holds these as a separate data set.
For data set [3] the target is unchanged. The source holds these as a separate data set.
The nature of data set [4]: physchem. The conditions noted are these: buffer, pH 7.4.
A short description of data set [5]: in vivo. To be noted: mouse, brain.
A short description of data set [6]: physchem. To be noted: octanol/water.
Data set [7] is described as follows: in vivo. The conditions noted are these: mouse, brain, iv, 5 mg/kg.
Data set [8] in a line: in vivo. To be noted: mouse, brain, iv, 5 mg/kg. The source holds these as a separate data set.
The nature of data set [9]: in vivo. To be noted: mouse, brain, iv, 5 mg/kg. The source holds these as a separate data set.

The structures appear in SMILES notation.

T1 sequence (P07333 whole entry): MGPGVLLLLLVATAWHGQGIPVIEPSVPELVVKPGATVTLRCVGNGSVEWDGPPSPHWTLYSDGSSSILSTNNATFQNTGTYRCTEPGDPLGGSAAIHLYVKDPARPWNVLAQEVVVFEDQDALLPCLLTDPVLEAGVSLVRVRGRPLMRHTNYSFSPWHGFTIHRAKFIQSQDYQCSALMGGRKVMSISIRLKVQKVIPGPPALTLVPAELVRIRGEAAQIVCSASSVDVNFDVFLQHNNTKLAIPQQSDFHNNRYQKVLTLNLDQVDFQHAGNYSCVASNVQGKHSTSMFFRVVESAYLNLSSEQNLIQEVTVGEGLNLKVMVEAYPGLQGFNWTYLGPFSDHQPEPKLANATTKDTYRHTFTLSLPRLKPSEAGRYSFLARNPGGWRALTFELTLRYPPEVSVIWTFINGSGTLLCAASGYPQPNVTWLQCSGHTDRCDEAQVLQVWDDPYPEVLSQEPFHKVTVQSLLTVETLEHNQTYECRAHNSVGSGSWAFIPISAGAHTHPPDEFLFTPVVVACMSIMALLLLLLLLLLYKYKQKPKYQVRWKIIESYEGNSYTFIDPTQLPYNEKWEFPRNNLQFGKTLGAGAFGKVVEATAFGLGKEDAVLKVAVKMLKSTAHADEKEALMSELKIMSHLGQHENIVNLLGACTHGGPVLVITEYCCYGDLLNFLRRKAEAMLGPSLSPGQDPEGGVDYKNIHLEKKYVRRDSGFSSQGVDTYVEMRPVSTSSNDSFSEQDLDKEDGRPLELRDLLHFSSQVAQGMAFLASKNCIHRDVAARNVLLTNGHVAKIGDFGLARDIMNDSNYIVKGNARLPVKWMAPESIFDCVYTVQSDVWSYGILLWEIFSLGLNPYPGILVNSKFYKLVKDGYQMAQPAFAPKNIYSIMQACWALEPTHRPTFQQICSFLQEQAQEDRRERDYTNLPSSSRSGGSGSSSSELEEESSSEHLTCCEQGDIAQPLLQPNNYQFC

What is called IC50 is the point on the concentration scale where inhibition reaches its midpoint. Read a high IC50 as weaker potency in that assay. As to `CCOc1cc2ncc(C(N)=O)c(Nc3ccc(F)cc3F)c2cc1N1CCN([11CH3])CC1`, it took 6 nM to reach half-maximal inhibition in data set [1] (IC50). This counts as single-digit nanomolar.

The term Ki denotes the equilibrium dissociation constant of an inhibitor or competing ligand from its target. In turn, `CCOc1cc2ncc(C(N)=O)c(Nc3ccc(F)cc3F)c2cc1N1CCN(C)CC1` showed a Ki in data set [2] of 8 nM. This counts as single-digit nanomolar.

What is called Kd is the equilibrium constant for the complex coming apart. A higher Kd goes with a looser complex. As usually defined, the logD is lipophilicity at a set pH, counting ionised and neutral species. Higher therefore signals higher lipophilicity. As to `CNC(=O)c1cc(Oc2ccc3nc(N([11CH3])[C@@H]4CCCC[C@H]4O)sc3c2)ccn1`, the equilibrium dissociation constant (Kd) in [3] worked out at 26 nM. The compound further yielded a logD in data set [4] of 3.38.

The compound `CNC(=O)c1cc(Oc2ccc3nc(N(C)[C@@H]4CCCC[C@H]4O)sc3c2)ccn1` showed a Kd in data set [3] of 15.7 nM. In data set [4], this compound yielded a logD of 3.67.

As usually defined, the tissue uptake is the share of the injected amount in each gram of the tissue. High values mean strong accumulation, low ones little accumulation. Consider `[11CH3]NC(=O)c1cc(Oc2ccc3nc(N[C@@H]4CCCC[C@H]4O)sc3c2)ccn1`, for which the tissue uptake at 1 h was 1.18 %ID/g in data set [5] and 1.3 %ID/g in data set [9]. This compound gave a logD in [6] of 2.26. The compound further returned a tissue uptake at 5 min in data set [7] of 2 %ID/g. Further, the tissue uptake at 0.25 h in [8] is 1.35 %ID/g.
